The results in this text go back to patent US9713613B2, “Methods and compositions for the treatment of cancer and related hyperproliferative disorders” (priority 2007, dated 2017).

One experiment concerns SREBP-1. Description: Western blot of SREBP-1 processing in DU145 cells. The class given is cell-based, human. The conditions noted are these: 6 hrs, IGF1. The procedure: To examine whether fatostatin A affects the proteolytic activation of SREBPs, whole cell lysates of DU145 cells treated with fatostatin A were analyzed by western blots with an antibody against the NH2 terminus of SREBP-1 (FIG. 3A). […] Similar results were obtained for SREBP-2 with an antibody against its COOH terminus (FIG. 3B).
DU145 prostate cancer cells were seeded on a 6-well plate at a density of 2×10^5 cells/well in a serum-free MEM incubated at 37° C. for overnight. The cells were then treated with DMSO or fatostatin A ([…]) in presence of IGF1 (1 μg/mL). After 6 hrs of incubation, the cells were harvested in PBS and lysated in an SDS buffer. The samples were separated on a 10% SDS-PAGE gel and blotted by using rabbit anti-SREBP-1 and anti-SREBP-2 antibodies. The specific bands were visualized by using enhanced chemiluminescent (ECL) detection reagents (Amersham).
(In general: A western blot detects proteins with antibodies after separation by electrophoresis.)

The next experiment has as its system mice (129Sv background). The experiment can be described thus: mice, two-week treatment, normal diet. It is filed as in vivo, mouse. The following applies: two weeks. The procedure:
Food intake was similar between both groups (3.8 and 3.5 g/mouse/day for treated and control mice, respectively).
In the second protocol, two groups of male mice (n=5) were treated daily for two weeks with either 30 mg/kg fatostatin A or 10% DMSO in PBS. Food intake and body weight were measured daily. At the end of the experiments, the mice were briefly fasted for 4-5 hrs, and their blood was withdrawn for determination of serum constituents. The mice were then sacrificed, and their livers were quickly removed and ground to powder in liquid nitrogen. The powdered tissues were suspended in 10 ml of PBS containing 0.1 mM PMSF, 5 mM benzamidine, and 5 mg/mL protease inhibitor cocktail (Roche), homogenized using Polytron (3×30 Sec, at a high speed), and sonicated briefly to degrade DNA. The extracts were clarified by centrifugation at 16,000×g for 20 min. The samples were then subjected to western blot analysis using commercially available antibodies against FAS and SREBP-1. FAS and ACC activities were determined as described earlier (Mao et al., 2006).

For another experiment, the system named is RPMI8226 cells. The experiment can be described thus: RPMI8226 cell growth, MTT assay. The class given is cell-based, human. The conditions noted are these: 5 μM, 48 hours. The procedure:
(§1) 10,000 MOLT-4 cells (FIGS. 35A-35C) and 20,000 RPM18226 cells (FIGS. 35D-35F) were seeded onto 96 well plate in RPMI 1640 medium containing 5% FBS or fat-free charcoal treated serum (FF-FBS) for 24 hours at 37 C. MOLT-4 and RPM18226 cells were treated for additional 48 hours with different concentrations of compound 19 (None control without DMSO, Vehicle with DMSO, 1, 2, 5, 10 and 20 μM in DMSO; RPM18226 cells also were treated with 3 μM in DMSO). At the end of 48 hours cells were subjected to MTT assay to determine viability. Values are depicted as means±SD; *P<0.05.
(§2) 20,000 MOLT-4 cells (FIGS. 36A-36C) and 20,000 RPM18226 cells (FIGS. 36D-36F) cells were seeded onto 96 well plates in RPMI 1640 Medium containing 5% Fetal bovine serum (FBS) or 5% fat free charcoal treated serum (FF-FBS) for 24 hours at 37 C. Cells then were treated for additional 48 hours with different concentrations of compound 17 (None control without DMSO, Vehicle with DMSO, 1, 2, 3, 5, 10 and 20 μM in DMSO). At the end of the 48 hours treatment cells were subjected to MTT assay to determine viability. Values are depicted as means±SD (n=3); **P<0.001; ***P<0.0001.
RPM18226 cells were grown under the same conditions as the MOLT-4 cells. 20,000 cells were seeded into 96 well plates for 24 hrs prior to treatment with increasing concentrations of compound 19 as described for MOLT-4 cells. […]
On the technique in general: Tetrazolium dyes change colour on reduction, which living cells bring about.

The next experiment relates to MOLT-4 cells. Description: MOLT-4 cell growth, MTT assay. The class given is cell-based, human. The following applies: 48 hours. The procedure:
as §1, §2
MOLT-4 cells were grown at two different conditions under 5% fetal bovine serum (FBS) and under 5% FBS fat free serum (charcoal treated serum). 10,000 Cells were seeded a 96 well plate for 24 hours before starting the treatment with different concentrations of compound 19. Compound 19 dissolved in DMSO was added to cells for 48 hours before determining cell growth using MTT assay. […] Compound 19 inhibited cell growth about 75-80% at 10 and 20 μM under both growth conditions.
MOLT-4 cells were grown at two different conditions under 5% fetal bovine serum (FBS) and under 5% FBS fat free serum (charcoal treated serum). 20,000 cells were seeded into a 96 well plate for 24 hours before starting the treatment with different concentrations of compound 17. Compound 17 dissolved in DMSO was added to cells for 48 hours before determining cell growth using MTT assay. […] Compound 17 inhibited cell growth about 85-100% at 5, 10 and 20 μM under both growth conditions. Under both 5% FBS and 5% FBS fat free sera there was a strong trend of inhibition starting at 1 μM (FIGS. 36B-36C).

The test system of a further experiment is HePG2 cells. Description: HePG2 cell growth, SREBP-1 western blot. It is filed as cell-based, human. The procedure: Cells were seeded onto 16 well plates at a density of 100000 cells/well in medium containing 2% charcoal stripped serum. After 24 hours, compound 19 was added to the cells at the indicated concentrations for another 48 hours. […] Values are depicted as means±SD; *P<0.05.

Turning to `CCCc1cc(-c2nc(-c3ccc(C)cc3)cs2)ccn1` [Compound 1, 2-propyl-4-(4-p-tolylthiazol-2-yl)pyridine], in the experiment with SREBP-1, the “amounts of mature and precursor forms of SREBP-1 (western blot)” value is reported as “decreased the amounts of the 68 KDa mature form of SREBP-1 in a dose-dependent manner”. Moreover, the “loss of body weight” value with mice (129Sv background) (30 mg/kg daily, normal diet, control no change) was determined as 10%. Further, in the experiment with mice (129Sv background) (30 mg/kg daily), the “decrease of FAS activity and its protein level in liver” value is “about 30%”. The same compound gave a food intake with mice (129Sv background) (control 3.5) of 3.8 g/mouse/day.

On to `CCCc1cc(-c2nc(-c3ccc(NS(C)(=O)=O)cc3)cs2)ccn1` [Compound 19, N-(4-(2-(2-propylpyridin-4-yl)thiazol-4-yl)phenyl)methanesulfonamide], for which the “growth inhibition in 5% FF FBS relative to 5% FBS” value in the experiment on RPMI8226 cells was “about 1.5”. For the same compound, the growth inhibition with MOLT-4 cells (2 and 5 μM, FBS fat free serum) was 30-50%. For the same compound, the “inhibition of cell growth” value in the experiment on MOLT-4 cells (10 and 20 μM, 5% FBS and 5% FBS fat free) is given as 75-80%. In addition, in the experiment with HePG2 cells (25 μM, HePG2 cells), the “level of mature and precursor forms of SREBP-1 (western blot)” value was “significant decrease in the level of the mature and active form”. Besides, the “toxicity, morphology and growth of treated cells” value in the experiment on HePG2 cells (25, 50 and 100 μM, 48 hours) was “high level of toxicity”.
